Test results as given in patent US20140072584A1, “NOVEL PHARMACEUTICAL USE OF BENZOIC ACID DERIVATIVES” (priority 2010, published 2014).

Columns and labels:
[1] = after oral administration, cited from earlier work
CD4+ effector cells = assay: Mixed lymphocyte culture, CFSE proliferation of effector cells by flow cytometry; type: cell-based, rat; details: 4 days culture
Excerpt: Experiment method: From bodies of untreated rats (LEW-1A rats in Example 1), splenocytes were extracted according to the splenocytes extraction method described in Section 2.2.1. Splenocytes were fluorescence-labeled for TCR, CD4 and CD25, and by flow cytometry cell sorter TCR+CD4+CD25−cells were collected as CD4+ effector cells. Splenocytes after the removal of T-lymphocytes (TCR+cells), B cell lymphocytes (CD45R+cells) and NK cells (3.2.3+cells) by immuno-magnetic beads, were marked using fluorescent antibodies for TCR, CD11c and CD123 (antibody concentration was 5-10 μg/ml). By flow cytometry cell sorter, TCR-CD11c−CD123+cells were collected as pDC, and TCR-CD11c+CD123−cells were collected as mDC.
Well separated CD4+ effector cells and pDC or mDC and defined regulatory cells, respectively in a proportion of 4/4/1 were added into a 96-well culture plate, 200 ul culture medium was added and they were cultured in a 5% CO2 incubator at 37 degrees Celsius for 4 days. During the cultivation, cinnamoyl anthranilic acid (1.2-150 μmol) or control DMSO solvent was added. Cells were stain labeled after the four days, and the proliferation of effector cells was analyzed by a flow cytometer.
CD4+ effector cells before the mixed culture were marked by living organism dye CFSE (10*6 cells/ml in 5 μM CFSE). Labeled CD4+ effector cells were added to a mixed lymphocyte cultivation test, were marked again using fluorescent antibodies (TCR, CD4) after four days, and then were analyzed by a flow cytometer (TCR+CD4+gate) for effector cell proliferation.
Cinnamoyl anthranilic acid was added in different concentrations (150 μM, 75 μM, 37.5 μM, 18.7 μM, 9.35 μM, 4.7 μM, 2.35 μM, 1.2 μM). Cell stain labeling was conducted after 4 days of the culture, and the proliferation of effector cells was analyzed by a flow cytometer.

[2] = system: LEW-1W donor transplanted rat hearts; assay: Heart transplantation model, LEW-1W rats as donor, LEW-1A as recipient, oral administration; type: in vivo; details: oral 500 mg/kg/day, four weeks; n=24
Description: a) Heart Transplantation Animal Model with LEW-1W Rats as Donor, LEW-1a as Recipient:
LEW-1W rats were used as donors; donors hearts after being isolated were preserved in saline at 0-4° C. […] The donor's aorta and the recipient's abdominal aorta were sutured up with 8-0 Prolene vascular threads, and the donor's pulmonary artery and the recipient's vena cava were sutured up with 8-0 Prolene vascular threads. When blood vessels were opened, the rat's heart would immediately resume beating, (please see Guillonneau C, Hill M, Hubert F X, Chiffoleau E, Hervé C, Xian-Liang Li, et al. CD40Ig treatment results in allograft acceptence mediated by CD8+CD45RClow T cells, IFN-γ and indoleamine 2,3 dioxygenase. Journal Clinical Investagtion. 2007; 117 (4): 1096-1106).
Observation parameters: after the abdomen was closed, palpation was used to check the beating of a transplanted rat heart, to determine graft survival period. That transplanted heart stops beating within 3 weeks was considered as having acute rejection, that transplanted heart stops beating after one month was considered as having chronic rejection, and that transplanted heart beats normally for more than three months was considered as having immune tolerance. […]

[3] = system: BN donor transplanted rat hearts; assay: Heart transplantation model, BN rats as donor, LEW-1A rats as recipient, oral administration; type: in vivo; details: oral 500 mg/kg/day, four weeks; n=6
Description: b) Heart Transplantation Animal Model with BN Rats as Donor and LEW-1A Rats as Recipient:
BN rats were used as donors; donors hearts after being isolated were preserved in saline at 0-4° C. […] The donor's aorta and the recipient's abdominal aorta were sutured up with 8-0 Prolene vascular threads, and the donor's pulmonary artery and the recipient's vena cava were sutured up with 8-OProlene vascular threads. When blood vessels were opened, the rat's heart would immediately resume beating.
Observation parameters: after the abdomen was closed, palpation was used to check the beating of a transplanted rat heart, to determine graft survival period. That transplanted heart stops beating within 3 weeks was considered as having acute rejection, that transplanted heart stops beating after one month was considered as having chronic rejection, and that transplanted heart beats normally for more than three months was considered as having immune tolerance.
Experiment Methods: 12 rats from the experiment model established by method b) BN rats as donors and LEW-1A rats as recipients were used and divided into study and control groups, 6 rats for each group. […]

**Q.** With `COc1ccc(/C=C/C(=O)Nc2ccccc2C(=O)O)cc1OC` [cinnamoyl anthranilic acid] as the compound, how does the “blood concentration at 48 h” value ([1]; 48 h) read?
**A.** The value was “difficult to be detected”.

**Q.** What about the plasma half-life [1] of the same compound?
**A.** Its plasma half-life is 5 to 8.6 h.

**Q.** And the “time to peak plasma concentration” value [1]?
**A.** Its value is 2 to 3 h.

**Q.** And the tissue distribution [1]?
**A.** The tissue distribution was “bronchial and lung have the highest concentration”.

**Q.** What about the “effect on proliferation of CD4 effector T cells (CFSE)” value (CD4+ effector cells; 37.5 μM to 9.35 μM) of the same compound?
**A.** The value was “dose-dependent inhibitory effect”.

**Q.** And the “effect on activated CD4 effector cells at high concentrations” value (CD4+ effector cells; 150 μM and 75 μM)?
**A.** Its value is “directly kill activated CD4 effector cells”.

**Q.** What about the “effect on proliferation of CD4 effector cells at low concentration” value (CD4+ effector cells; below 4.7 μM) of the same compound?
**A.** Its value is “did not show the inhibitory effect”.

**Q.** What about the “recipients overcame acute rejection” value [2] of the same compound?
**A.** The value was 92%.

**Q.** And the “recipients with long-term survival with a state of induced immune tolerance” value [2]?
**A.** Its value is 42%.

**Q.** And the “recipients overcame acute rejection” value [3]?
**A.** Its value is 100%.

**Q.** What about the “recipients with long-term survival with a state of induced immune tolerance” value [3] of the same compound?
**A.** Its value is 50%.
